# What was measured:
# [1] = test system: most sensitive non-small lung cancer cell; details: as reported by Georgiadis et al. 1997, read-out: IC50 to Taxol; cited from earlier work
# [2] = test system: non-small cell lung cancer cells A549; assay: In vitro growth of A549 cells in the presence of Taxol, iron shielding box vs plastic box (CCK-8 cell viability); type: cell-based, human
# Procedure: (§1) The surrounding magnetic field shielding device and the plastic box used in this experiment were the same as those described in Example 2 above.
# The human non-small cell lung cancer cells (A549) and human breast cancer cell (MCF-7) were supplied by the Cell Resource Center, Shanghai Institute of Life Sciences. The cells were maintained in a monolayer and were grown at 37° C. in an atmosphere of 5% CO2 with moisture in RPMI 1640 medium, supplemented with 10% fetal bovine serum. The medium also contained […] Penicillin and 100 mg/L Streptomycin. The cells at exponentially growing phase were used in the experiments.
# (§2) The human non-small cell lung cancer cells (A549) or the human breast cancer cells (MCF-7) were grown in 96 well plates. The growth of non-small cell lung cancer cell line and the breast cancer cell line were investigated while being exposed to environmental magnetic field or being shielded from environmental magnetic field. Each cell culture was separated into three equal portions. The first sample was cultured in a surrounding magnetic field shielded box (an iron shielding box). The second sample was cultured in a plastic box, and the third sample was cultured in the absence of any surrounding box as a control. All of the samples were placed in the incubator with an atmosphere containing 5% CO2 and at a temperature of 37° C. The cell growth rates were examined periodically by harvesting the cells and determining cell viability using the cell counting kit-8 and microplate reader RT-6000. The experiments were continued for four to seven days depending on the cell types and the respective growth rates.
# (§3) Cell count kit-8 (CCK-8) ([…] manufactured by Dojindo Molecular Technologies, Inc.) allows sensitive colorimetric assays for the determination of cell viability. […]
# [3] = test system: Taxol-resistant non-small cell lung cancer cells A549-T24; assay: In vitro growth of Taxol-resistant A549-T24 cells in the presence of Taxol, iron shielding box vs plastic box (CCK-8 cell viability); type: cell-based, human; details: for growth of A549-T24 in the iron shielding box slower than the control cultured in a plastic box: 12 nM Taxol in medium, 37° C., shielded vs unshielded
# Description: as §1
# The protocol described by Kavallaris et al., J. Clin. Invest., 100(5): 1282-1293 (1997)^[13] was followed to culture taxol-resistant human lung carcinoma cells A549. The human non-small cell lung cancer cells A549 were maintained in RPMI 1640 containing 10% FBS and 1% Penicillin-Streptomycin. For inducing its resistance to Taxol, in a stepwise manner, Taxol was added into the culture medium with periodically increasing its concentration. A549 cells were initially exposed to 3 nM of Taxol, and once normal growth was achieved, cells were maintained at this concentration. In two weeks, the Taxol dose was increased by two-fold, such as 3 nM, 6 nM, 12 nM, until the final drug concentration of 24 nM was achieved to develop Taxol-resistant cells. The obtained cells were maintained at a Taxol concentration of 24 nM. These Taxol-resistant cells were named as A549-T24.
# as §2, with “The experiments were continued for four to seven days depending on the cell types and the respective growth rates.” left out
# as §3
smiles,measurement,setting,value
"CC(=O)O[C@H]1C(=O)[C@@]2(C)[C@H]([C@H](OC(=O)c3ccccc3)[C@]3(O)C[C@H](OC(=O)[C@H](O)[C@@H](NC(=O)c4ccccc4)c4ccccc4)C(C)=C1C3(C)C)[C@]1(OC(C)=O)CO[C@@H]1C[C@@H]2O [Taxol, Paclitaxel]",IC50,[1],9.9 nM
same,growth of A549 in the iron shielding box slower than the control cultured in a plastic box,"[2]; 5 nM Taxol in medium, 37° C., 3 days of incubation, shielded vs unshielded, P<0.001",16.3%
same,growth of A549 in the iron shielding box decreased in comparison to the control cultured in a plastic box,"[2]; 5 nM Taxol in medium, 37° C., 5 days of incubation, shielded vs unshielded, P<0.0005",47.3%
same,IC50,"[2]; Homo sapiens, 120 h, A549, under shielding of environmental magnetic field, 5 days, read-out: IC50 of Taxol (drug concentration at which cell growth is suppressed to 50%)",~5 nM
same,growth of A549-T24 in the iron shielding box slower than the control cultured in a plastic box,"[3]; day 3, P<0.01",11.2%
same,growth of A549-T24 in the iron shielding box slower than the control cultured in a plastic box,"[3]; day 4, P<0.001",10.7%
same,IC50,"[3]; Homo sapiens, 96 h, A549-T24, under shielding of surrounding magnetic field, day 4",~10 nM

# Source: patent US12097380B2, “Shielding of magnetic field as a medical therapy” (Micromed Scientia, Inc., priority 2012, dated 2024)
